What is called Ki is the equilibrium dissociation constant of an inhibitor or competing ligand from its target.

The values that follow come from BindingDB's records for doi:10.1021/jm00001a002 (National Institutes of Health, 1995).

The test addresses Sigma non-opioid intracellular receptor 1 (Cavia porcellus) (UniProt Q60492). Description: In vitro binding affinity towards Sigma receptor type 1 was determined by measuring its ability to displace [3H](+)-pentazocine from guinea pig brain membrane.

SMILES strings stand for the structures.

Sigma non-opioid intracellular receptor 1 (Cavia porcellus), sequence (Q60492 whole entry, looked up): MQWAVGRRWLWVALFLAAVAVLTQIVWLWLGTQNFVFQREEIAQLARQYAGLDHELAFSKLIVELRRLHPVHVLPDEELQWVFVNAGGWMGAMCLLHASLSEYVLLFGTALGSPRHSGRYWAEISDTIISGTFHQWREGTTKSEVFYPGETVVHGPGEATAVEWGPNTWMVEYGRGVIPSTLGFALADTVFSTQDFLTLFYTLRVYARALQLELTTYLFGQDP

Consider `CN1CCC=C(c2nsnc2SCCF)C1`, for which the Ki came out at 21.7 nM.

The compound `CN1CCC=C(c2nsnc2SCCCF)C1` came in with a Ki of 62.1 nM.
